According to DBAASP:
In brackets after ≈: the same amount, converted by molar mass. Each block holds one compound with its values, some of them ahead of it.

Columns and labels:
Test in all cases: ≥ marks a high value that may be exact or a test limit, other limits are often not marked, values filed in µg/mL are converted to µM
Escherichia coli JW0013 = test system: Escherichia coli JW0013
[1] = test system: Pseudomonas aeruginosa ATCC 27853
[2] = test system: Escherichia coli ATCC 25922
[3] = test system: Enterococcus faecalis ATCC 29212
Escherichia coli UB1005 = test system: Escherichia coli UB1005
[4] = test system: Bacillus subtilis ATCC 6633
[5] = test system: Staphylococcus epidermidis C621
[6] = test system: Staphylococcus aureus ATCC 25923
[7] = test system: Klebsiella pneumoniae ATCC 13883
[8] = test system: Staphylococcus aureus USA 300
[9] = test system: Pseudomonas aeruginosa PAO1

SMILES: CC[C@H](C)[C@H](NC(=O)[C@H](CCCN=C(N)N)NC(=O)[C@H](CCCN=C(N)N)NC(=O)[C@@H]1CCCN1C(=O)[C@@H]1CCCN1C(=O)[C@H](CCCN=C(N)N)NC(=O)[C@@H]1CCCN1C(=O)[C@@H](NC(=O)[C@@H]1CCCN1C(=O)[C@H](CC(C)C)NC(=O)[C@H](Cc1ccc(O)cc1)NC(=O)[C@@H]1CCCN1C(=O)[C@@H]1CCCN1C(=O)[C@H](CCCCN)NC(=O)[C@H](CC(=O)O)NC(=O)[C@@H](N)C(C)C)[C@@H](C)O)C(=O)N[C@@H](Cc1ccc(O)cc1)C(=O)N[C@@H](CC(N)=O)C(=O)N[C@@H](CCCN=C(N)N)C(N)=O [VDKPPYLPTPRPPRRIYNR]
- MIC (Escherichia coli JW0013): 2.06 µM (≈ 4.8 µg/mL)

SMILES: C[C@H](NC(=O)[C@H](C)NC(=O)[C@H](Cc1c[nH]c2ccccc12)NC(=O)[C@H](C)NC(=O)[C@H](C)NC(=O)[C@H](Cc1c[nH]c2ccccc12)NC(=O)[C@H](C)NC(=O)[C@H](C)NC(=O)[C@H](Cc1c[nH]c2ccccc12)NC(=O)[C@H](C)NC(=O)[C@H](C)NC(=O)[C@H](CCCCN)NC(=O)[C@H](CCCCN)NC(=O)[C@H](CCCCN)NC(=O)[C@H](CCCCN)NC(=O)[C@H](CCCCN)NC(=O)[C@@H](N)CCCCN)C(N)=O [KKKKKKAAWAAWAAWAA]
- MIC [1]: 8 µM (≈ 15.3 µg/mL)
- MIC [2]: 8 µM (≈ 15.3 µg/mL)
- MIC [3]: > 32 µM
- MIC (Escherichia coli UB1005): 1 µM (≈ 1.91 µg/mL)
- MIC [4]: 4 µM (≈ 7.65 µg/mL)
- MIC [5]: 8 µM (≈ 15.3 µg/mL)
- MIC [6]: 32 µM (≈ 61.2 µg/mL)

SMILES: CC[C@H](C)[C@H](NC(=O)[C@H](CCCN=C(N)N)NC(=O)[C@H](CCCN=C(N)N)NC(=O)[C@@H]1CCCN1C(=O)[C@@H]1CCCN1C(=O)[C@H](CCCN=C(N)N)NC(=O)[C@H](Cc1c[nH]c2ccccc12)NC(=O)[C@H](CCCN=C(N)N)NC(=O)[C@@H]1CCCN1C(=O)[C@H](CC(C)C)NC(=O)[C@H](Cc1ccc(O)cc1)NC(=O)[C@@H]1CCCN1C(=O)[C@@H]1CCCN1C(=O)[C@H](CCCCN)NC(=O)[C@H](CC(=O)O)NC(=O)[C@@H](N)C(C)C)C(=O)N[C@@H](Cc1ccc(O)cc1)C(=O)N[C@@H](CC(N)=O)C(=O)N[C@@H](CCCN=C(N)N)C(N)=O [VDKPPYLPRWRPPRRIYNR]
- MIC (Escherichia coli JW0013): 1.94 µM (≈ 4.8 µg/mL)

SMILES: CC[C@H](C)[C@H](NC(=O)[C@H](CCCN=C(N)N)NC(=O)[C@H](CCCN=C(N)N)NC(=O)[C@@H]1CCCN1C(=O)[C@@H]1CCCN1C(=O)[C@H](CCCN=C(N)N)NC(=O)[C@@H]1CCCN1C(=O)[C@H](CCCN=C(N)N)NC(=O)[C@@H]1CCCN1C(=O)[C@H](CC(C)C)NC(=O)[C@H](Cc1ccc(O)cc1)NC(=O)[C@@H]1CCCN1C(=O)[C@@H]1CCCN1C(=O)[C@H](CCCCN)NC(=O)[C@H](CC(=O)O)NC(=O)[C@@H](N)CCC(N)=O)C(=O)N[C@@H](Cc1ccc(O)cc1)C(=O)N[C@@H](CC(N)=O)C(=O)N[C@@H](CCCN=C(N)N)C(N)=O [QDKPPYLPRPRPPRRIYNR]
- MIC (Escherichia coli JW0013): 1.98 µM (≈ 4.8 µg/mL)

SMILES: CC(C)C[C@H](NC(=O)[C@H](C)NC(=O)[C@H](CCCCN)NC(=O)CNC(=O)[C@H](CC(C)C)NC(=O)[C@H](C)NC(=O)[C@H](CCCCN)NC(=O)[C@H](CC(C)C)NC(=O)[C@H](C)NC(=O)[C@H](CO)NC(=O)[C@H](CC(C)C)NC(=O)[C@H](CC(C)C)NC(=O)CN)C(N)=O [GLLSALKALGKAL]
- MIC [2]: 25 µM (≈ 31.3 µg/mL)
- MIC [7]: 25 µM (≈ 31.3 µg/mL)
- MIC [8]: 25 µM (≈ 31.3 µg/mL)
- MIC [9]: > 25 µM

More lines, in order of falling MIC (Escherichia coli JW0013), values ahead:

- MIC (Escherichia coli JW0013): 0.941 µM (≈ 2.4 µg/mL)
SMILES: CC[C@H](C)[C@H](NC(=O)[C@H](CCCN=C(N)N)NC(=O)[C@H](CCCN=C(N)N)NC(=O)[C@@H]1CCCN1C(=O)[C@@H]1CCCN1C(=O)[C@H](CCCN=C(N)N)NC(=O)[C@H](CCCN=C(N)N)NC(=O)[C@H](CCCN=C(N)N)NC(=O)[C@@H]1CCCN1C(=O)[C@H](CCCN=C(N)N)NC(=O)[C@H](Cc1ccc(O)cc1)NC(=O)[C@@H]1CCCN1C(=O)[C@H](CCCN=C(N)N)NC(=O)[C@H](CCCCN)NC(=O)[C@H](CC(=O)O)NC(=O)[C@@H](N)C(C)C)C(=O)N[C@@H](Cc1ccc(O)cc1)C(=O)N[C@@H](CC(N)=O)C(=O)N[C@@H](CCCN=C(N)N)C(N)=O [VDKRPYRPRRRPPRRIYNR]

- MIC (Escherichia coli JW0013): 0.3 µM (≈ 0.624 µg/mL)
SMILES: CC[C@H](C)[C@H](NC(=O)[C@H](Cc1ccc(O)cc1)NC(=O)[C@@H](NC(=O)[C@@H]1CCCN1C(=O)[C@H](CCCCN)NC(=O)[C@H](CC(N)=O)NC(=O)[C@H](CC(N)=O)NC(=O)CN)C(C)C)C(=O)N1CCC[C@H]1C(=O)N[C@@H](CCC(N)=O)C(=O)N1CCC[C@H]1C(=O)N[C@@H](CCCN=C(N)N)C(=O)N1CCC[C@H]1C(=O)N1CCC[C@H]1C(=O)N[C@@H](Cc1cnc[nH]1)C(=O)N1CCC[C@H]1C(=O)N[C@@H](CCCN=C(N)N)C(=O)N[C@@H](CC(C)C)C(=O)O [GNNKPVYIPQPRPPHPRL]

- MIC (Escherichia coli JW0013): 0.3 µM (≈ 0.641 µg/mL)
SMILES: CC[C@H](C)[C@H](NC(=O)[C@H](CCCN=C(N)N)NC(=O)[C@@H](N)CCCN=C(N)N)C(=O)N[C@@H](CCCN=C(N)N)C(=O)N1CCC[C@H]1C(=O)N[C@@H](CCCN=C(N)N)C(=O)N[C@@H](CCCN=C(N)N)C(=O)N1CCC[C@H]1C(=O)N[C@@H](CCCN=C(N)N)C(=O)N[C@@H](CC(C)C)C(=O)N1CCC[C@H]1C(=O)N[C@@H](CCCN=C(N)N)C(=O)N1CCC[C@H]1C(=O)N[C@@H](CCCN=C(N)N)C(=O)N1CCC[C@H]1C(=O)N[C@@H](CCCN=C(N)N)C(=O)O [RRIRPRRPRLPRPRPR]

- MIC (Escherichia coli JW0013): 0.24 µM (≈ 0.492 µg/mL)
SMILES: CC[C@H](C)[C@H](NC(=O)[C@H](CCCN=C(N)N)NC(=O)[C@@H](N)CCCN=C(N)N)C(=O)N[C@@H](CCCCN)C(=O)N1CCC[C@H]1C(=O)N[C@@H](CCCN=C(N)N)C(=O)N1CCC[C@H]1C(=O)N1CCC[C@H]1C(=O)N[C@@H](CCCN=C(N)N)C(=O)N[C@@H](CC(C)C)C(=O)N1CCC[C@H]1C(=O)N[C@@H](CCCN=C(N)N)C(=O)N1CCC[C@H]1C(=O)N[C@@H](CCCN=C(N)N)C(=O)N1CCC[C@H]1C(=O)N[C@@H](CCCN=C(N)N)C(=O)O [RRIKPRPPRLPRPRPR]
